Reference: ChEMBL document CHEMBL1152620, “Carbonic anhydrase inhibitors. Diazenylbenzenesulfonamides are potent and selective inhibitors of the tumor-associated isozymes IX and XII over the cytosolic isoforms I and II” (Bioorg Med Chem, 2009)

How the values were obtained:
Carbonic anhydrase 9 = Carbonic anhydrase 9 (Homo sapiens, UniProt Q16790); assay type: cell-based, Sf9
Description: Inhibition of human recombinant CA9 catalytic domain expressed in Sf9 cells by stopped flow CO2 hydration assay

[1] = Solubility in water; assay type: physicochemical; conditions: buffer
Carbonic anhydrase 12 = Carbonic anhydrase 12 (Homo sapiens, UniProt O43570); assay: Inhibition of human recombinant CA12 catalytic domain expressed in Sf9 cells by stopped flow CO2 hydration assay
Chain of Carbonic anhydrase 12 (O43570 whole entry, the tested form may be a part): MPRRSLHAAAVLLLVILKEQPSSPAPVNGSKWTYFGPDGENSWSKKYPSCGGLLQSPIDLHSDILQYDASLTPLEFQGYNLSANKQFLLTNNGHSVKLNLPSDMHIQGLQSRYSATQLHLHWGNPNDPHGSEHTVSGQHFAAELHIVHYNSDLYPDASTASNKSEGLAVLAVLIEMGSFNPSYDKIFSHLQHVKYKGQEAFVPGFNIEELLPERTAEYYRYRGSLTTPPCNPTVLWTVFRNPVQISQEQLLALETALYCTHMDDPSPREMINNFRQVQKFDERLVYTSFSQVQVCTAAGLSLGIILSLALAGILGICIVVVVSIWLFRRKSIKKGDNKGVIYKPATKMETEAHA

Ki (Carbonic anhydrase 9) [nM]	Ki (Carbonic anhydrase 12) [nM]	Compound	solubility [1]
	7.9	CN(C)c1ccc(/N=N/c2ccc(S(N)(=O)=O)cc2)cc1	
6.4	5	NS(=O)(=O)c1ccc(/N=N/c2ccc(O)cc2)cc1	
63		CN(CS(=O)(=O)O)c1ccc(/N=N/c2cccc(S(N)(=O)=O)c2)cc1	
57		NS(=O)(=O)c1cccc(/N=N/c2ccc(NCS(=O)(=O)O)cc2)c1	
4.9	69.4	CNc1ccc(/N=N/c2ccc(S(N)(=O)=O)cc2)cc1	
6.4		CN(C)c1ccc(/N=N/c2cccc(S(N)(=O)=O)c2)cc1	
5100		O=S(=O)(O)CNc1ccccc1 [SODIUM PHENYLAMINOMETHANESULFONATE]	

Continued, compound first:

Compound	Ki (Carbonic anhydrase 9) [nM]	Ki (Carbonic anhydrase 12) [nM]	solubility [1]
Nc1ccc(/N=N/c2ccc(S(N)(=O)=O)cc2)cc1	6		
NS(=O)(=O)c1ccc(/N=N/c2ccc(NCS(=O)(=O)[O-])cc2)cc1.[Na+]	5.4		Soluble
CN(CS(=O)(=O)[O-])c1ccc(/N=N/c2ccc(S(N)(=O)=O)cc2)cc1.[Na+]	3.5		Soluble
Nc1ccc(/N=N/c2cccc(S(N)(=O)=O)c2)cc1	5.9		
NS(=O)(=O)c1cccc(/N=N/c2ccc(O)cc2)c1	6.1	7.3	
CN(CS(=O)(=O)O)c1ccccc1 [SODIUM(METHYL(PHENYL)AMINO)METHANESULFONATE]	5850		
